{"source": "patent US20250333424A1", "about": "“ANTIVIRAL COMPOUNDS” (Gilead Sciences, Inc., priority 2024, published 2025)"}
{"tested_on": "monocytic THP1 cells infected with HIV VSV-G pseudotyped GFP-NEF reporter virus", "assay": "cells", "assay_type": "cell-based", "conditions": "Human immunodeficiency virus 1, THP-1, 24 h", "units": {"EC50": "nM"}}
{"smiles": "Cc1cc(/C=C/C#N)cc(C)c1C(O)c1nc(NC23CC(C#N)(C2)C3)nc2nn(C)cc12", "note": "(stereo not shown) [Compound 276, (E)-3-((4-((4-(2-cyanovinyl)-2,6-dimethylphenyl)(hydroxy)methyl)-2-methyl-2H-pyrazolo[3,4-d]pyrimidin-6-yl)amino)bicyclo[1.1.1]pentane-1-carbonitrile]", "EC50": 194}
{"smiles": "Cc1cc(/C=C/C#N)cc(C)c1Cc1nc(NC23CC(C#N)(C2)C3)nc2nn(C)cc12", "note": "[Compound 277, (E)-3-((4-(4-(2-cyanovinyl)-2,6-dimethylbenzyl)-2-methyl-2H-pyrazolo[3,4-d]pyrimidin-6-yl)amino)bicyclo[1.1.1]pentane-1-carbonitrile]", "EC50": 49.9}
{"smiles": "Cc1cc(/C=C/C#N)cc(C)c1Oc1nc(NC23CC(C#N)(C2)C3)nc2c1[C@@H]1OCCCN1C2=O", "note": "[Compound 279, (S,E)-3-((4-(4-(2-cyanovinyl)-2,6-dimethylphenoxy)-10-oxo-4b,7,8,10-tetrahydro-6H-pyrimido[5′,4′:3,4]pyrrolo[2,1-b][1,3]oxazin-2-yl)amino)bicyclo[1.1.1]pentane-1-carbonitrile]", "EC50": 57.2}
{"smiles": "Cc1cc(/C=C/C#N)cc(C)c1Oc1nc(NC23CC(C#N)(C2)C3)nc2c1[C@H]1OCCCN1C2=O", "note": "[Compound 280, (R,E)-3-((4-(4-(2-cyanovinyl)-2,6-dimethylphenoxy)-10-oxo-4b,7,8,10-tetrahydro-6H-pyrimido[5′,4′:3,4]pyrrolo[2,1-b][1,3]oxazin-2-yl)amino)bicyclo[1.1.1]pentane-1-carbonitrile]", "EC50": 33.7}
{"smiles": "Cc1cc(/C=C/C#N)cc(C)c1Oc1nc(NC23CC(C#N)(C2)C3)nc2c1C(O)NC2=O", "note": "(stereo not shown) [Compound 286, (E)-3-((4-(4-(2-cyanovinyl)-2,6-dimethylphenoxy)-5-hydroxy-7-oxo-6,7-dihydro-5H-pyrrolo[3,4-d]pyrimidin-2-yl)amino)bicyclo[1.1.1]pentane-1-carbonitrile]", "EC50": 72.4}
{"smiles": "COC1NC(=O)c2nc(NC34CC(C#N)(C3)C4)nc(Oc3c(C)cc(/C=C/C#N)cc3C)c21", "note": "(stereo not shown) [Compound 287, (E)-3-((4-(4-(2-cyanovinyl)-2,6-dimethylphenoxy)-5-methoxy-7-oxo-6,7-dihydro-5H-pyrrolo[3,4-d]pyrimidin-2-yl)amino)bicyclo[1.1.1]pentane-1-carbonitrile]", "EC50": 26.2}
{"smiles": "CCOC1NC(=O)c2nc(NC34CC(C#N)(C3)C4)nc(Oc3c(C)cc(/C=C/C#N)cc3C)c21", "note": "(stereo not shown) [Compound 288, (E)-3-((4-(4-(2-cyanovinyl)-2,6-dimethylphenoxy)-5-ethoxy-7-oxo-6,7-dihydro-5H-pyrrolo[3,4-d]pyrimidin-2-yl)amino)bicyclo[1.1.1]pentane-1-carbonitrile]", "EC50": 29.8}
{"smiles": "Cc1cc(/C=C/C#N)cc(C)c1Oc1nc(NC23CC(C#N)(C2)C3)nc2c1C(OCC(F)F)NC2=O", "note": "(stereo not shown) [Compound 289, (E)-3-((4-(4-(2-cyanovinyl)-2,6-dimethylphenoxy)-5-(2,2-difluoroethoxy)-7-oxo-6,7-dihydro-5H-pyrrolo[3,4-d]pyrimidin-2-yl)amino)bicyclo[1.1.1]pentane-1-carbonitrile]", "EC50": 52.9}
{"smiles": "Cc1cc(/C=C/C#N)cc(C)c1Oc1nc(NC23CC(C#N)(C2)C3)nc2c(=O)n(C)[nH]c12", "note": "[Compound 290, (E)-3-((7-(4-(2-cyanovinyl)-2,6-dimethylphenoxy)-2-methyl-3-oxo-2,3-dihydro-1H-pyrazolo[4,3-d]pyrimidin-5-yl)amino)bicyclo[1.1.1]pentane-1-carbonitrile]", "EC50": 387}
{"smiles": "Cc1cc(/C=C/C#N)cc(C)c1Oc1nc(NC23CC(C#N)(C2)C3)nc2c(=O)n(C)n(C)c12", "note": "[Compound 291, (E)-3-((7-(4-(2-cyanovinyl)-2,6-dimethylphenoxy)-1,2-dimethyl-3-oxo-2,3-dihydro-1H-pyrazolo[4,3-d]pyrimidin-5-yl)amino)bicyclo[1.1.1]pentane-1-carbonitrile]", "EC50": 31.1}
